Results from publication PMC4357247, “Novel agonists for serotonin 5-HT7 receptors reverse metabotropic glutamate receptor-mediated long-term depression in the hippocampus of wild-type and Fmr1 KO mice, a model of Fragile X Syndrome” (Frontiers in Behavioral Neuroscience, 2015).
Several values for one entry are separate records, joined by “and”; a condition that tells them apart may be missing. Equal values may be shown once.

Experiments:
[1] = Metabolic stability in mouse hepatic microsomes with NADPH-generating system; type: in vitro ADME; conditions: pH 7.4; for half-life at 1 μM: mouse liver microsomes 0.5 mg/mL, 1 μM compound, 37°C; for microsomal CLint at 1 μM: calculated from in vitro half-life, mouse liver microsomes
Description: Metabolic reactions were initiated by the addition of a NADPH regenerating system (NADP, glucose-6-phosphate, glucose-6-phosphate dehydrogenase, final glucose-6-phosphate dehydrogenase concentration, 1 unit/mL). Aliquots were removed (0, 5, 10, 30, and 60 min) and immediately mixed with an equal volume of cold acetonitrile containing internal standard. Test compound incubated with microsomes without NADPH regenerating system for 60 min was included. […] The column used was a Phenomenex Gemini C-18 (250 × 4.6 mm, 5 μm particle size). The samples were isocratically eluted using CH3CN/ammonium formate (20 mM, pH 5.5) 7:3 (v/v) as mobile phase. […] Liver microsomes provide the most convenient way to study cytochrome P450 enzyme-mediated metabolism.

[2] = tested on: mGluR-LTD in CA1 pyramidal neurons of hippocampal slices (native 5-HT7 receptors); assay: Patch clamp: reversal of DHPG-induced mGluR-LTD of EPSCs in CA1 pyramidal neurons, hippocampal slices from wild-type mice; type: cell-based; conditions: 5 min, measured 45 min after DHPG; for EPSC amplitude: compound 10 nM
Description: (§1) Patch clamp experiments were performed on mouse hippocampal slices from wild-type (wt) mice (FVB and C57BL/6J background) and Fmr1 KO2 mice (C57BL/6J background, kindly provided by Prof. Willemsen, Erasmus MC, Rotterdam, The Netherlands). […] Every care was taken to maximally reduce the number of animals and to minimize discomfort.
(§2) Acute hippocampal slices ([…]) were cut with a vibratome (Leica VT 1200). Slices were continually perfused with oxygenated ACSF. After 3 h of recovery, one slice was placed in the recording chamber of a patch camp set up and viewed with infrared microscopy (Leica DMLFS). A tungsten electrode was placed in the stratum radiatum to stimulate Schaffer collaterals with negative current pulses (duration 0.3 ms, delivered every 15 s by A310 Accupulser, WPI, USA). Evoked AMPA receptor-mediated excitatory post-synaptic currents (EPSCs) were recorded from CA1 pyramidal neurons under whole-cell patch clamp (holding potential -70 mV; EPC7-plus amplifier HEKA, Germany). Stimulation intensity was set to induce half-maximal EPSC amplitude. Series resistance (Rs) was monitored throughout the recording by means of 10 mV hyperpolarizing pulses; recordings were discarded from analysis if Rs changed by more than 20%. EPSC traces were filtered at 3 kHz and digitized at 10 kHz. Data were acquired and analyzed using Signal software (CED, England). The recording micropipette (resistance 1.5–3 MΩ) was filled with intracellular solution (in mM: K-gluconate 140; HEPES 10; NaCl 10; MgCl2 2; EGTA 0.2; Mg-ATP 3.5; Na-GTP 1; pH 7.3).
(§3) Cumulative histograms indicate % EPSC amplitude (mean ± SEM from groups of neurons) after application of DHPG alone (control LTD) or DHPG followed by a 5-HT7 receptor agonist. EPSC amplitude values from two groups of neurons were compared using the Student's t-test, with n indicating the number of neurons tested in each condition.

[3] = tested on: mGluR-LTD in CA1 pyramidal neurons of hippocampal slices (native 5-HT7 receptors); assay: Patch clamp: reversal of DHPG-induced mGluR-LTD of EPSCs in CA1 pyramidal neurons, hippocampal slices from Fmr1 KO mice; type: cell-based; conditions: Fmr1 KO (C57BL6J) slices, 5 min; for EPSC amplitude: compound 10 nM, applied after DHPG (100 μM, 5 min)
Description: as §1, §2, §3

5-HT1A receptors = molecular target: T1, 5-HT1A receptors (Homo sapiens, UniProt P08908); assay: Binding affinity for 5-HT1A receptors
T1 sequence (P08908 1-422): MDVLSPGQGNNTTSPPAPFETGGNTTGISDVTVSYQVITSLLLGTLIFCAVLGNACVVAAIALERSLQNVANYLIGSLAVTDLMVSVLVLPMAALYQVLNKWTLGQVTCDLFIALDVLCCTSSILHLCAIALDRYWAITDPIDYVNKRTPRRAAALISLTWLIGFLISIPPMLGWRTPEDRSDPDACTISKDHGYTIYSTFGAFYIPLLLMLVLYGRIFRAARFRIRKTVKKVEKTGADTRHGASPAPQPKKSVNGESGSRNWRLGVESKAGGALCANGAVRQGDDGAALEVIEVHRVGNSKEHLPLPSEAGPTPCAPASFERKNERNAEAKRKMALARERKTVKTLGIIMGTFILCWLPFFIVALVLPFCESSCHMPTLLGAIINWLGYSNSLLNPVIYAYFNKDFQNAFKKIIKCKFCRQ
Text: Table 1 Binding Affinity Data and Pharmacokinetic Parameters of Test Compounds. | column: 5-HT1AKi [nM]

[4] = design: method as in Leopoldo et al., 2008; conditions: mice, intraperitoneal injection; ref Leopoldo et al., 2008; cited from earlier work
5-HT7 receptors = 5-HT7 receptors (Homo sapiens, UniProt P34969); assay: Radioligand binding affinity for 5-HT7 receptors
P-glycoprotein (P-gp) = molecular target: T2, P-glycoprotein (P-gp) (Homo sapiens, UniProt P08183); assay: Efflux ratio (BA/AB) in Caco-2 cells monolayer; type: in vitro ADME; conditions: efflux ratio basal-to-apical / apical-to-basal, Caco-2 monolayer, cutoff 3 for P-gp substrate
T2 construct: fluxes in Caco-2 cells monolayer; endogenous in cells; host or cells: Caco-2 cells
Text: This system is an in vitro model to evaluate the interaction of small molecules with P-glycoprotein (P-gp), an efflux pump localized on the blood-brain barrier that prevents xenobiotics to enter the brain. Therefore, a centrally acting drug should not be a P-gp substrate.

[5] = wt FVB slices, applied after DHPG (100 μM, 5 min)

T2 sequence (P08183 whole entry): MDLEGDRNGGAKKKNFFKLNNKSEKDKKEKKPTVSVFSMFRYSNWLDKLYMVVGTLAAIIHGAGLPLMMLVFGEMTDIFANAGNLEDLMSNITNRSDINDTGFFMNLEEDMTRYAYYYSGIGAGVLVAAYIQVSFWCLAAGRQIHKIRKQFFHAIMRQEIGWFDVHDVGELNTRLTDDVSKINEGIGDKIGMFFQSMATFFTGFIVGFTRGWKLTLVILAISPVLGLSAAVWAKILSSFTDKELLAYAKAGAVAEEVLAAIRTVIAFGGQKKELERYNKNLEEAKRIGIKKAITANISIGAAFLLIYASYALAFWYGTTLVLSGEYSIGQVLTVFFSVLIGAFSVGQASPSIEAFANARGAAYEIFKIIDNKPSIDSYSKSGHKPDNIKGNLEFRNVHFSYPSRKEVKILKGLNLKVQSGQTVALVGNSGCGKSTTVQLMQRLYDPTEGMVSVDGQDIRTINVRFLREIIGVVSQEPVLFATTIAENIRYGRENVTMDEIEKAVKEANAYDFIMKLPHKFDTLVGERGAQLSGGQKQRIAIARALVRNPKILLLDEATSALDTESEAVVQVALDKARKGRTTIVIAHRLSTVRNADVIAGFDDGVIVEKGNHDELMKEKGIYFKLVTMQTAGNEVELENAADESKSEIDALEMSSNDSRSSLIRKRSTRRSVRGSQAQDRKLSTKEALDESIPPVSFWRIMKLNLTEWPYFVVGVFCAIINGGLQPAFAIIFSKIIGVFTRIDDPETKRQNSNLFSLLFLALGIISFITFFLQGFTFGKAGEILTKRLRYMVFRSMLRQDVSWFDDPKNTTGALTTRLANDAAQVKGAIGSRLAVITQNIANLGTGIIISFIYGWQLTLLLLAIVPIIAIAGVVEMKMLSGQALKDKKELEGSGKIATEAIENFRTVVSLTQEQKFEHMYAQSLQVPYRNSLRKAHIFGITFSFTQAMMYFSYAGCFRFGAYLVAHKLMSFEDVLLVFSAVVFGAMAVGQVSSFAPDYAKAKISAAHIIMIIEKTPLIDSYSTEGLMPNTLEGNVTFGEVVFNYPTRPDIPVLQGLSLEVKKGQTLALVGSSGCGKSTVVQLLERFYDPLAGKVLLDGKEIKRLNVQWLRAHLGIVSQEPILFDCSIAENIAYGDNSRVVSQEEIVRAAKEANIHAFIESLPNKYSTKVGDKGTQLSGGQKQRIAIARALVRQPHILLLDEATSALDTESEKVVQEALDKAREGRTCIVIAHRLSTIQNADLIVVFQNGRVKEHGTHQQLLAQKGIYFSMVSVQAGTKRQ
Sequence of 5-HT7 receptors (P34969 whole entry): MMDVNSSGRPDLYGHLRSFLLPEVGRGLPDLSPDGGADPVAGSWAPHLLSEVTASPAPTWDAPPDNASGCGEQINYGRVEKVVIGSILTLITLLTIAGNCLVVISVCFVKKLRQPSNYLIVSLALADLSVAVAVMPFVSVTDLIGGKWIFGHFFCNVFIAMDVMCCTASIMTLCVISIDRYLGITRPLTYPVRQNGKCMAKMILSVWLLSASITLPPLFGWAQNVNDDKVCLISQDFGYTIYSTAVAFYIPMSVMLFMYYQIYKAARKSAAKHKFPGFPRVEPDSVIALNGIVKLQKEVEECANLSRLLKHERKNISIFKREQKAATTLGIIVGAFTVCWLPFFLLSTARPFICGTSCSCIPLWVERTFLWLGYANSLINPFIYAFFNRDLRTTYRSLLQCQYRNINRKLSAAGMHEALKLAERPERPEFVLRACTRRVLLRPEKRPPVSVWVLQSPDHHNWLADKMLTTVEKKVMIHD

SMILES | half-life at 1 μM [1] [min] | microsomal CLint at 1 μM [1] [µL/min/mg] | Ki (5-HT1A receptors) [µM] | EPSC amplitude [2, 5] | also measured
COc1ccc(-c2ccccc2N2CCN(C[C@@H](O)COc3cnccn3)CC2)cc1 [BA-10, (R)-1-[4-[2-(4-methoxyphenyl)phenyl]piperazin-1-yl]-3-(2-pyrazinyloxy)-2-propanol] | 14.8 | 96 |  |  | 
N[C@H](C(=O)O)c1cc(O)cc(O)c1 [DHPG, S-3,5-DHPG] |  |  |  |  | EPSC amplitude after DHPG alone (mGluR-LTD) ([2]; wt C57BL/6J slices, DHPG 100 μM): 74.4 ± 9.8 % of control; EPSC amplitude after DHPG alone (mGluR-LTD) ([3]; DHPG 100 μM, measured 45 min after DHPG): 56 ± 5 % of control and 56 ± 12 % of control
COc1ccc(-c2ccccc2N2CCNCC2)cc1 [PM-20, 1-[2-(4-methoxyphenyl)phenyl]piperazine] |  |  |  | 60 ± 7 % of control | 
c1ccc(-c2ccccc2N2CCNCC2)cc1 [RA-7, 1-(2-biphenyl)piperazine] |  |  |  | 64 ± 7 % of control | 

More lines, main results first:

half-life at 1 μM [1] [min] | microsomal CLint at 1 μM [1] [µL/min/mg] | Ki (5-HT1A receptors) [µM] | SMILES | EPSC amplitude [2, 5] | also measured
10.6 | 131 | 0.188 | N#Cc1ccc(CNC(=O)CCCCCN2CCN(c3ccccc3-c3ccccc3)CC2)cc1 [LP-211, N-(4-cyanophenylmethyl)-4-(2-diphenyl)-1-piperazinehexanamide, reference compound] |  | EPSC amplitude ([2]; wt C57BL/6J slices, applied 5 min after DHPG (100 μM, 5 min)): 99.4 ± 1.5 % of control; EPSC amplitude ([3]; 45 min after DHPG): 78 ± 5 % of control; EPSC amplitude ([3]; 55 min after DHPG): 97 ± 3 % of control; in vivo half-life [4]: 65 min
6.7 | 205 | 0.152 | COc1ccc(-c2ccccc2N2CCN(CCCCCC(=O)NCc3ccc(F)nc3)CC2)cc1 [PF-62, N-(2-fluoropyridin-5-ylmethyl)-4-[2-(4-methoxy)phenyl]-1-piperazinehexanamide] |  | Ki (5-HT7 receptors): 0.00382 µM; efflux ratio (P-glycoprotein (P-gp)): 4.2
